Measured values taken from patent publication US6372756B1, “Epimorphian compound and its use” (AvMax, Inc., priority 1998, dated 2002).
Where two headings read alike, the source gives them in different places.

Columns and labels:
[1] = test system: interleukin-2 (IL-2) synthesis in OKT3-stimulated PBMCs; test: OKT3-stimulated human peripheral blood mononuclear cell assay, IL-2 secretion by ELISA; assay type: cell-based; settings: for IC50: OKT3 (1 μg/l) for 14 hours, curve fit, three independent experiments, read-out: IC50 of inhibition of IL-2 synthesis
Procedure: In an OKT3-stimulated human peripheral blood mononuclear cell assay, the relative biological activities of sinomenine and N-demethyl-sinomenine were tested.
The OKT3-stimulated human peripheral blood mononuclear cell assay was performed as described in Liu, L. et al., Inhibition of Lymphocyte Proliferation by the Anti-Arthritic Drug Sinomenine, Int. J. Immunopharmac., 16(8):685-691, (1994). Human Peripheral Blood Mononuclear Cells (PBMCS) were isolated from heparinized blood drawn from healthy adults. After separation from other blood components by density gradient centrifugation on Ficoll-hypaque (Biochrom, Berlin, Germany), the PBMCs were suspended in RPMI 1640 medium/10%FCS (RPMI 1640 medium with L-glutamine and nonessential amino acids: Gibco (Eggenstein, Germany); fetal calf serum (FCS): PAA Biologics (Marburg, Germany)).
The PBMCs (10^5 cells in a total volume of 150 μl per well) were activated by incubation with the monoclonal anti-T-cell receptor/CD3 complex antibody OKT3 (1 μg/l) for 14 hours. During this incubation, either sinomenine or N-demethyl-sinomenine was present in each of the main experimental wells at concentrations ranging from 10^−8 to 10^−3 M, as indicated on the x-axes of the graphs of FIGS. 10A and 10B. Control wells containing neither sinomenine nor its major metabolite were also prepared. The concentration of secreted IL-2 in the supernatants of activated PBMCs was determined using a commercial ELISA kit (Immunotech, Hamburg, Germany) following the manufacturer's instructions. In each of FIGS. 10A-B, the mean and standard error of three independent experiments are shown.
FIG. 10A presents the results for inhibition of IL-2 secretion by sinomenine. The concentration of IL-2 production, as a percentage of the control (100% equalled 1135 pg/ml, in this instance), was plotted against the molar concentration of sinomenine for each data point. The curves depicted were generated by a curve fit computer program (Microcal Origin Version 3.5). […]

human liver microsomes = test: Incubation of sinomenine with human liver microsomes and NADPH generating system, HPLC/UV; assay type: in vitro ADME
Procedure: The livers of male Sprague Dawley rats, treated with dexamethasone for two days, and human liver specimens provided the sources for the starting material. Liver microsomes were prepared using standard centrifugation techniques as described by Guengerich (Guengerich, F. P., et al., Microsomal Enzymes Involved in Toxicology-Analysis and Separation, In: Principles and Methods in Toxicology (Ed. Hayes A W), pp. 609-637, Raven Press, New York, (1982)) with some modifications. Specifically, phosphate buffer was used instead of TRIS buffer and microsomes were stored at −80° C. The protein concentration was determined using a bicinchoninic acid assay (Redingbaugh, M. G., et al., Adaptation of the Bicinchoninic Acit Protein Assay for Use With Microtiter Plates and Sucrose Gradient Fractions, Anal. Biochem., 153:267-271, (1986)) and adjusted with 0.1 M potassium phosphate buffer, pH 7.4, to 3 g/l. […]
The presence of sinomenine and N-demethyl-sinomenine over time in the presence of microsomes and an NADPH generating solution were determined by HPLC and ultraviolet (UV) analysis. […]
For the HPLC analysis, a 250×4 mm analytical column was prepared with endcapped C18 material of 5 μm particle size. […] Sinomenine and its metabolites were detected with a UV wavelength of 234 nm. […]

[2] = Water solubility inferred from retention on lipophilic reversed-phase HPLC column; assay type: physicochemical; settings: evidenced by shorter retention time on lipophilic reversed-phase HPLC column
From the text: This characteristic of the novel compound results in a different oral bioavailability, pharmacokinetic profile, and organ distribution pattern than the known compound and also leads to ease in creating formulations for therapeutic use.
An HPLC system was also used for analysis of the sinomenine metabolism end products. For analytical HPLC, sinomenine and its metabolites were separated on a 250×4 mm LiChroCart column filled with endcapped Supersphere RP-18 material of 5 μm particle size and 100 Å pore width (Merck, Darmstadt, Germany).
The metabolite was prepared as described in Example 1. The samples were centrifuged (2000 g, 2 minutes) and 100 μl of the supernatant was injected into the analytical HPLC system. A control sample was prepared by the method described in Example 1 except that sinomenine and liver microsomes were incubated with an equal amount of phosphate buffer instead of with the NADPH generating solution. An HPLC run of the control sample was also made. The flow rate for the HPLC was set at 1 ml/min and the UV detection wavelength was 234 nm. The analytical column was kept at room temperature.
Sinomenine and its metabolites were isocratically eluted from the column with a mobile phase of 9.0/9.0/12.0/70.0 v/v/v/v methanol/acetonitrile/0.2 M sodium acetate/water, pH 5.5. The various fractions were quantified based on an external sinomenine calibration curve. […]

[3] = In vivo sinomenine metabolism, rat plasma; parameters: species or system female Lewis rats; settings: sinomenine 150 mg/kg intraperitoneally, blood after 30 minutes
Procedure: (§1) More particularly, to study its metabolism in vivo, sinomenine was injected intraperitoneally into female Lewis rats at a concentration of 150 mg/kg body weight. Blood was taken after 30 minutes from the rat tail vein and plasma samples were prepared from the blood samples via standard techniques. In a parallel study, MRL-1 pr mice were injected intraperitoneally with either sinomenine at a concentration of 100 mg/kg body weight or physiological saline. Mouse urine was collected over a period of 24 hours.
(§2) The collected samples of rat blood and mouse urine from each of these studies were split so that testing could be performed immediately and after storage at −20° C. for one week. HPLC and GC/MS analysis was performed and there were no statistically significant differences in the results obtained from the immediately tested and the frozen samples.
(§3) A metabolite peak with the same relative retention time as the major metabolite isolated after incubation of sinomenine and NADPH generating solution with rat microsomes or human liver microsomes was obtained upon analysis of the rat blood and mouse urine samples. […] FIGS. 9A-B show HPLC chromatograms run on urine samples obtained from mice treated with saline (FIG. 9A) or with sinomenine (FIG. 9B). […]

[4] = In vivo sinomenine metabolism, mouse urine; parameters: species or system MRL-1 pr mice; settings: sinomenine 100 mg/kg intraperitoneally, urine collected over 24 hours
Procedure: as §1, §2, §3

Lymphocyte proliferation = settings: in vitro; cited from earlier work
[5] = in vivo; cited from earlier work

| Structure (SMILES) | IC50 [1] [µM] | biological activity (IL-2 inhibition IC50) relative to sinomenine ([1]; same assay, relative to sinomenine) | share of all sinomenine metabolic products (human liver microsomes; believed to represent) | water solubility relative to sinomenine [2] | detection as metabolite in plasma [3] | detection as metabolite in urine [4] | IC50 ([1]; Homo sapiens, PBMC) [µM] | amounts of sinomenine and its major metabolite (human liver microsomes; 120 minutes after the start of the reaction, human liver microsomes) | effect on lymphocyte proliferation (Lymphocyte proliferation) | side effects [5] |
| --- | --- | --- | --- | --- | --- | --- | --- | --- | --- | --- |
| COC1=C[C@H]2[C@H]3Cc4ccc(OC)c(O)c4[C@@]2(CCN3)CC1=O [N-demethyl-sinomenine] | 20 | approximately five | approximately 90% | greater water solubility | detected as a metabolite | detected as a metabolite | – | – | – | – |
| COC1=C[C@@H]2[C@@H]3Cc4ccc(OC)c(O)c4[C@]2(CCN3C)CC1=O [sinomenine, reference compound] | – | – | – | – | – | – | 100 | approximately equal amounts | inhibited by sinomenine in a reversible manner without exhibiting direct cytotoxic effects | minor side effects such as mild pain, cough, and diarrhea |
